Experiments:
[1] = biological target: T1, Polyamine deacetylase HDAC10 (Homo sapiens, UniProt Q969S8); assay: Inhibition of human HDAC10 using FAM-labeled acetylated peptide as substrate incubated for 17 hrs by fluorescence based assay
T1 sequence (Q969S8 whole entry): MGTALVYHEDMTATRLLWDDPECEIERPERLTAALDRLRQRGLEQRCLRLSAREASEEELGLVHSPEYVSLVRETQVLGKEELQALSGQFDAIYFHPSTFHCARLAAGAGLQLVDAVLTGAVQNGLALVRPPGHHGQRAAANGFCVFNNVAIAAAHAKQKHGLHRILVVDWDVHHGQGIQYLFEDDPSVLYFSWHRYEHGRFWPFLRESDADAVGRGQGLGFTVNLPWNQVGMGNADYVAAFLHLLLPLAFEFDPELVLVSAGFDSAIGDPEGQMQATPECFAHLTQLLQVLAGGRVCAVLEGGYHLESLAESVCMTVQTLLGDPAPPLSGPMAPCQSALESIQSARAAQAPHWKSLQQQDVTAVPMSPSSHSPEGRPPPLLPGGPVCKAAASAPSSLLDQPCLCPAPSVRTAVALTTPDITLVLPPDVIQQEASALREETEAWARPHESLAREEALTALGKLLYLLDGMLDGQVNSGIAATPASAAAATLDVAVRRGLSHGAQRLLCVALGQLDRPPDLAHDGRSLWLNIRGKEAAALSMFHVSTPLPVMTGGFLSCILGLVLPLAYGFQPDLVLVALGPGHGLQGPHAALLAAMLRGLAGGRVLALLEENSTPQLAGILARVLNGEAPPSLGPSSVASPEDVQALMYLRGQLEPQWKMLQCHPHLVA

Histone deacetylase 8 = biological target: T2, Histone deacetylase 8 (Homo sapiens, UniProt Q9BY41); assay: Inhibition of human HDAC8 using FAM-labeled acetylated peptide as substrate incubated for 17 hrs by fluorescence based assay
T2 sequence (Q9BY41 whole entry): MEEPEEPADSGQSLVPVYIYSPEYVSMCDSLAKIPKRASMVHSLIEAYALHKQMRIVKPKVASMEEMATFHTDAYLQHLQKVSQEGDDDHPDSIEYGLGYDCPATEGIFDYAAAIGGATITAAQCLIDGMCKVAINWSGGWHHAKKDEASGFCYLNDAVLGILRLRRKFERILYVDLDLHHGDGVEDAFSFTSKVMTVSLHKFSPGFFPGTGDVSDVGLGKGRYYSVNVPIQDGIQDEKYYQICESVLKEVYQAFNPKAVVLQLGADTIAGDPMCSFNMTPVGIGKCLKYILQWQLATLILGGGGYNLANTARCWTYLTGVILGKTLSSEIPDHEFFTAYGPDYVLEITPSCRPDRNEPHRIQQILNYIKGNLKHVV

[2] = biological target: T3, Protein deacetylase HDAC6 (Homo sapiens, UniProt Q9UBN7); assay: Inhibition of human HDAC6 using FAM-labeled acetylated peptide as substrate incubated for 17 hrs by fluorescence based assay
T3 sequence (Q9UBN7 whole entry): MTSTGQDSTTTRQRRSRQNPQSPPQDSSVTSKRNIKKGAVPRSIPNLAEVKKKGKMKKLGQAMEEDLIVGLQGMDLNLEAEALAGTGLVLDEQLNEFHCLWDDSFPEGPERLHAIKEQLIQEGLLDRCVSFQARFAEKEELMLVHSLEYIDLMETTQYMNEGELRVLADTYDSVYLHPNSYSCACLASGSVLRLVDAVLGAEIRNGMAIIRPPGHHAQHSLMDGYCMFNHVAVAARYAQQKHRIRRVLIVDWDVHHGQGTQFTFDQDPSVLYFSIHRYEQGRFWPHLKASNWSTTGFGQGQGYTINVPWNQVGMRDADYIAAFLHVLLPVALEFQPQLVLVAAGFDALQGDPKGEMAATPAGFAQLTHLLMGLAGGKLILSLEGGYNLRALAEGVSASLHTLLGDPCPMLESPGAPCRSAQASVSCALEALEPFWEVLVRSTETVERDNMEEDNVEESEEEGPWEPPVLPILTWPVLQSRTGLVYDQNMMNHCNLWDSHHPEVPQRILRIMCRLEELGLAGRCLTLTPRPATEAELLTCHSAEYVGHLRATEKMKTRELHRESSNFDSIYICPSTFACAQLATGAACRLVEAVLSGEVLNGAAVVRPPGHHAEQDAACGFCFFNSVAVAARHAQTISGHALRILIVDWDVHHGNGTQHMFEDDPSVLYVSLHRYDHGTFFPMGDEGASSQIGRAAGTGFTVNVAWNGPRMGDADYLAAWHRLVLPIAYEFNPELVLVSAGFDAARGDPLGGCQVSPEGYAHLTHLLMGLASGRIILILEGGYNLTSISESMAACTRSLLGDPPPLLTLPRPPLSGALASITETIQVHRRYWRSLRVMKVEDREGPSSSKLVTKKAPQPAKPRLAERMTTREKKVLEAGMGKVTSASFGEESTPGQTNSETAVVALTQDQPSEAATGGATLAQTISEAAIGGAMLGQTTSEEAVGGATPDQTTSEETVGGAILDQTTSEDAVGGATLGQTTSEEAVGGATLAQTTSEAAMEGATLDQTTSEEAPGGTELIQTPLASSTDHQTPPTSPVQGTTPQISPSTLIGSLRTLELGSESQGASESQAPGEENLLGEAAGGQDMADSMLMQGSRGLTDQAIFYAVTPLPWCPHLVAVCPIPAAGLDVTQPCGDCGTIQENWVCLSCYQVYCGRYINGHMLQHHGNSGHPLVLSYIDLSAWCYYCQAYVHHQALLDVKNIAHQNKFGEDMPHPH

Histone deacetylase 1 [3] = biological target: T4, Histone deacetylase 1 (Homo sapiens, UniProt Q13547); assay: Inhibition of human HDAC1 using FAM-labeled acetylated peptide as substrate incubated for 17 hrs by fluorescence based assay
T4 sequence (Q13547 whole entry): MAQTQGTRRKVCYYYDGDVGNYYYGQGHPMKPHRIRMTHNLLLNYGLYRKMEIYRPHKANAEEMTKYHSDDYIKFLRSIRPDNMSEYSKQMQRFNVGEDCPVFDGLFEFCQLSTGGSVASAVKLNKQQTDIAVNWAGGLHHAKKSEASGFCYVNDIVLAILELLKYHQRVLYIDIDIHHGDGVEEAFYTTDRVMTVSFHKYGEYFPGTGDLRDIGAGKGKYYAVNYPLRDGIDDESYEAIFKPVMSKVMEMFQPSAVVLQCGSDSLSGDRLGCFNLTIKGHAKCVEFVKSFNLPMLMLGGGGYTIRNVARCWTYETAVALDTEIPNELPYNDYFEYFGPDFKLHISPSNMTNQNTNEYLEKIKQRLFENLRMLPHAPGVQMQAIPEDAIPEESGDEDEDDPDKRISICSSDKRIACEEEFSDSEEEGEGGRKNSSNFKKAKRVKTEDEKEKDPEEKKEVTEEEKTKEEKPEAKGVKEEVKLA

Histone deacetylase 2 = Histone deacetylase 2 (Homo sapiens, UniProt Q92769); assay: Inhibition of human HDAC2 using FAM-labeled acetylated peptide as substrate incubated for 17 hrs by fluorescence based assay
Chain of Histone deacetylase 2 (Q92769 whole entry): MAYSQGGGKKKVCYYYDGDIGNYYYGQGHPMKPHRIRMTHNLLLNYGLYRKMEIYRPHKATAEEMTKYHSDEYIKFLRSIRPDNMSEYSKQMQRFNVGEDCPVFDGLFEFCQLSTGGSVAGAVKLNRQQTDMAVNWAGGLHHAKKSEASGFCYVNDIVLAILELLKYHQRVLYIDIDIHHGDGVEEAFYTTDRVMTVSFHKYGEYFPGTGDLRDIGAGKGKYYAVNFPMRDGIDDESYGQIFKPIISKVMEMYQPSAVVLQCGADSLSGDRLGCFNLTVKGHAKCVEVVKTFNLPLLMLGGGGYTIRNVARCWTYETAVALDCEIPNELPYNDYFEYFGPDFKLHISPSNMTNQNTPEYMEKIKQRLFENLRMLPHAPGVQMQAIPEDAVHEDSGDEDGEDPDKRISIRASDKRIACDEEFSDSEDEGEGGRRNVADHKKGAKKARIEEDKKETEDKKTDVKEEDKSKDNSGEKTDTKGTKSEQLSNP

Histone deacetylase 1 [4] = biological target: T4, Histone deacetylase 1; assay: Inhibition of human HDAC1
Histone deacetylase 11 = biological target: T5, Histone deacetylase 11 (Homo sapiens, UniProt Q96DB2); assay: Inhibition of human recombinant HDAC11 incubated for 17 hrs
T5 sequence (Q96DB2 whole entry): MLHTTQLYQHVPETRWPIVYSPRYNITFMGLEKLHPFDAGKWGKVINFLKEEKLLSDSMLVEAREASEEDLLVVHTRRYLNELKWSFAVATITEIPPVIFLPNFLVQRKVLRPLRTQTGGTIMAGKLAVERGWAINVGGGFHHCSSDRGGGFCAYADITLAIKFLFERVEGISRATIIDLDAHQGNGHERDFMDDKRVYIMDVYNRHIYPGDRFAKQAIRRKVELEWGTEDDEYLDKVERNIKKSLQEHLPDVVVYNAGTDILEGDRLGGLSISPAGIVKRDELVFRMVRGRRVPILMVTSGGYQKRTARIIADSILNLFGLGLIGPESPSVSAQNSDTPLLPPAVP

Histone deacetylase 7 = biological target: T6, Histone deacetylase 7 (Homo sapiens, UniProt Q8WUI4); assay: Inhibition of human recombinant HDAC7 incubated for 17 hrs
T6 sequence (Q8WUI4 whole entry): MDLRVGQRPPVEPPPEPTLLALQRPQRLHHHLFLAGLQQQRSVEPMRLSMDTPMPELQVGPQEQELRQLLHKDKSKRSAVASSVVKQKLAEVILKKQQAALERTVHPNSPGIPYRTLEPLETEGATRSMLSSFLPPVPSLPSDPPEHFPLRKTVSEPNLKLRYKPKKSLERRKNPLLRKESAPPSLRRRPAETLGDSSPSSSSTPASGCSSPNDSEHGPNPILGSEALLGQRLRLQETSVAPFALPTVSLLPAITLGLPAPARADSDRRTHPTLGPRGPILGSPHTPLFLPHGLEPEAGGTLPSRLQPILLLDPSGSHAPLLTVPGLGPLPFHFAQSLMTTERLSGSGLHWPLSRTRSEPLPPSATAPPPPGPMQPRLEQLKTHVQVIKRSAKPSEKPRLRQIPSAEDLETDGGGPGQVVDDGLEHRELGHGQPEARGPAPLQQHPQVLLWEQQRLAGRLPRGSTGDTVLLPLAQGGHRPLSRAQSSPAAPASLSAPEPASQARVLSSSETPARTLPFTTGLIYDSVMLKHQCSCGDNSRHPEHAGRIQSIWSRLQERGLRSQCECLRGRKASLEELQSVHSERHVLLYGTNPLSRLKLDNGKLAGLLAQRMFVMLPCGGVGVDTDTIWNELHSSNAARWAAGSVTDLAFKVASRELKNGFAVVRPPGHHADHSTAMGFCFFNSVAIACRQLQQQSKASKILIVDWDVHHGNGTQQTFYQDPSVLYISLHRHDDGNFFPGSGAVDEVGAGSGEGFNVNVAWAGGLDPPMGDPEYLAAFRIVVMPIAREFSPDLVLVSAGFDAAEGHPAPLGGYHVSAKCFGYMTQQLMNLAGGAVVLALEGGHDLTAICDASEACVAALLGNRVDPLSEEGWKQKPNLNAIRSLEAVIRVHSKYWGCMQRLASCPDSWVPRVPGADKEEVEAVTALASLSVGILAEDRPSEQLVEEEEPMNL

Histone deacetylase 4 [5] = biological target: T7, Histone deacetylase 4 (Homo sapiens, UniProt P56524); assay: Inhibition of human recombinant HDAC4 incubated for 17 hrs
T7 sequence (P56524 whole entry): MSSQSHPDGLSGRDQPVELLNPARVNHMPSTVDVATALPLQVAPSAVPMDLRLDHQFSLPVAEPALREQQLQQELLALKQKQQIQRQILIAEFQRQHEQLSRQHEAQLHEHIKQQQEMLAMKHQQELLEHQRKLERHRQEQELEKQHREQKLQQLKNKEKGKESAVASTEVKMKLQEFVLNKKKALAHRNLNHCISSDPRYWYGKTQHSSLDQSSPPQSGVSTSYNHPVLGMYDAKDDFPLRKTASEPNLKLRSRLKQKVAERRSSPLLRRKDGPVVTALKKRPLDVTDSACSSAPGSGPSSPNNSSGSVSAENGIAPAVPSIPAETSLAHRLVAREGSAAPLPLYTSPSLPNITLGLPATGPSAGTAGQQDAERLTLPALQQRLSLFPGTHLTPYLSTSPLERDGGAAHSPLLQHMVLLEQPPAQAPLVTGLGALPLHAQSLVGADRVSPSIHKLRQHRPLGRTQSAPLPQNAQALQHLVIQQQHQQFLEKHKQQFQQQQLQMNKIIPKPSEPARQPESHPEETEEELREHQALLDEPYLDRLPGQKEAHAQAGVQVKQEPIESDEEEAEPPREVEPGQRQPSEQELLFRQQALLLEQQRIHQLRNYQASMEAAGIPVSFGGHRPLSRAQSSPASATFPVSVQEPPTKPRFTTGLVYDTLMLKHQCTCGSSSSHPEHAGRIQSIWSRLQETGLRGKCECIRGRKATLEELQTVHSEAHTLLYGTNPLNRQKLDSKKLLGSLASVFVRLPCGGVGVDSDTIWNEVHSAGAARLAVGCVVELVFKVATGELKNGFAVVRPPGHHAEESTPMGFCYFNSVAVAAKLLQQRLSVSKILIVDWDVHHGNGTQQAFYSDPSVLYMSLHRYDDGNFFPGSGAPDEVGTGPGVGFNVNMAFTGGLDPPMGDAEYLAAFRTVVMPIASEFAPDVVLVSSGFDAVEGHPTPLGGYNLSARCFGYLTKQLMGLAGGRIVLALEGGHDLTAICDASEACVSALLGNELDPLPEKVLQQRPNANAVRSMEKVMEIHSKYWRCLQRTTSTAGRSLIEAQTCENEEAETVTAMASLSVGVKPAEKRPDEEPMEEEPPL

Histone deacetylase = assay: Inhibition of HDAC (unknown origin); assay type: protein assay, Homo sapiens
Histone deacetylase 4 [6] = biological target: T7, Histone deacetylase 4; assay: Inhibition of HDAC4 (unknown origin)
[7] = biological target: T1, Polyamine deacetylase HDAC10; assay: Inhibition of HDAC10 (unknown origin)
[8] = Apparent permeability across basolateral to apical side in human Caco-2 cells; assay type: ADME, cell-based
[9] = Apparent permeability across apical to basolateral side in human Caco-2 cells; assay type: ADME, cell-based

Compound: NCC(=O)Nc1ccccc1-c1ccc(NC(=O)CCCCCNC(=O)CS)cc1
- IC50 [1]: 7.43 µM
- IC50 (Histone deacetylase 8): 6.03 µM
- IC50 [2]: 0.39 µM
- IC50 (Histone deacetylase 1 [3]): 3.96 µM
- IC50 (Histone deacetylase 2): 16 µM

Compound: O=C(CS)NCCCCCn1ccc2cc(Cl)c(Cl)cc21
- IC50 (Histone deacetylase 1 [4]): 7.9 µM

Compound: Nc1ccc(F)cc1NC(=O)c1ccc(CNC(=O)/C=C/c2cccnc2)cc1
- IC50 (Histone deacetylase 11): 0.432 µM
- IC50 (Histone deacetylase 7): > 30 µM
- IC50 (Histone deacetylase 4 [5]): > 30 µM

Compound: CC(C)C(NC(=O)CCNC(=O)CS)C(=O)Nc1cnc2ccccc2c1 (racemic)
- IC50 (Histone deacetylase): 25.1 µM

Compound: CC(C)C(NC(=O)CCCNC(=O)CS)C(=O)Nc1cnc2ccccc2c1 (racemic)
- IC50 (Histone deacetylase): 3.02 µM

Compound: O=C(/C=C/c1cccc(S(=O)(=O)Nc2ccccc2)c1)NO [BELINOSTAT]
- IC50 (Histone deacetylase 4 [6]): 1.24 µM
- IC50 [7]: 0.031 µM

Compound: O=C(CCCCCCC(=O)Nc1ccccc1)NO [VORINOSTAT]
- Papp B→A [8]: 6.33 ×10⁻⁶ cm/s
- Papp A→B [9]: 3 ×10⁻⁶ cm/s

From ChEMBL document CHEMBL5226279, “Mercaptoacetamide: A promising zinc-binding group for the discovery of selective histone deacetylase 6 inhibitors” (Eur J Med Chem, 2021)
